Our source for the LC retention time values is the RepoRT retention time repository (doi:10.1021/acs.analchem.2c02893).

A short description of this series: RP, Thermo Scientific Acclaim RSLC 120 C18, 100 × 2.1 mm, 2.2 µm, 30 °C, 0.2 mL/min, estimated dead time 1.1 min; A: 90% water + 10% methanol + 0.01% formic acid + 5 mM ammonium formate, pH 3.61; B: methanol + 0.01% formic acid + 5 mM ammonium formate, pH 3.61; gradient (min/%B) 0/1 1/1 2/39 13/99.9 15/99.9 15.1/1 20.1/1. To be noted: stereoisomer not certain.

Regarding `O=c1oc2ccccc2c(O)c1C1CC(c2ccc(OCc3ccc(C(F)(F)F)cc3)cc2)Cc2ccccc21` (stereo not given) [Flocoumafen], the LC retention time is 12.4 min.
Turning to `N#CCNC(=O)c1cnccc1C(F)(F)F` [Flonicamid], the LC retention time was 4.22 min.
For `COc1ncc(F)c2nc(S(=O)(=O)Nc3c(F)cccc3F)nn12` [Florasulam], the LC retention time was 5.75 min.
Turning to `CS(=O)(=O)c1ccc(C(O)C(CF)NC(=O)C(Cl)Cl)cc1` (stereo not given) [Florfenicol], the LC retention time was 4.73 min.
To `COC=C(C(=O)OC)c1ccccc1COc1cc(C(F)(F)F)nc(OC(C)C)n1` [Fluacrypyrim] belongs 11.5 min.
To `COc1ccccc1N1CCN(CCCC(=O)c2ccc(F)cc2)CC1` [Fluanisone] belongs 6.41 min.
For the compound `CCCCOC(=O)C(C)Oc1ccc(Oc2ccc(C(F)(F)F)cn2)cc1` (stereo not given) [Fluazifop-p-butyl], the LC retention time is 12 min.
With `O=[N+]([O-])c1cc(C(F)(F)F)c(Cl)c([N+](=O)[O-])c1Nc1ncc(C(F)(F)F)cc1Cl` [Fluazinam], the LC retention time is 12.3 min.
Take `O=C(NC(=O)c1c(F)cccc1F)Nc1ccc(Cl)c(Oc2ncc(C(F)(F)F)cc2Cl)c1` [Fluazuron]: the LC retention time is 12.7 min.
For `COC(=O)Nc1nc2ccc(C(=O)c3ccc(F)cc3)cc2[nH]1` [Flubendazole], the LC retention time is 8.65 min.
Regarding `O=C1CN=C(c2ccccc2F)c2cc(Br)ccc2N1` [Flubromazepam], the LC retention time was 8.7 min.
As for `Cc1nnc2n1-c1ccc(Br)cc1C(c1ccccc1F)=NC2` [Flubromazolam], the LC retention time is 8.04 min.
To `OC(Cn1cncn1)(Cn1cncn1)c1ccc(F)cc1F` [Fluconazole] belongs 5.06 min.
`O=C(NC(=O)c1c(F)cccc1F)Nc1ccc(CON=C(c2ccc(Cl)cc2)C2CC2)cc1` [Flucycloxuron]: the LC retention time is 12.8 min.
In the case of `CC(C)C(C(=O)OC(C#N)c1cccc(Oc2ccccc2)c1)c1ccc(OC(F)F)cc1` (stereo not given) [Flucythrinate], the LC retention time was 12.7 min.
To `N#Cc1c[nH]cc1-c1cccc2c1OC(F)(F)O2` [Fludioxonil] belongs 9.48 min; to `CC(C)N(C(=O)CS(=O)(=O)O)c1ccc(F)cc1` [Flufenacet-ESA], 5.71 min.
To `CC(C)N(C(=O)C(=O)O)c1ccc(F)cc1` [Flufenacet-OXA] belongs 5.49 min.
With `CC(C)N(C(=O)COc1nnc(C(F)(F)F)s1)c1ccc(F)cc1` [Flufenacet], the LC retention time was 10.1 min.
For `O=C(NC(=O)c1c(F)cccc1F)Nc1ccc(Oc2ccc(C(F)(F)F)cc2Cl)cc1F` [Flufenoxuron], the LC retention time was 12.9 min.
For `Fc1cccc(F)c1-c1nnc(-c2ccccc2Cl)nn1` [Flufenzine (Diflovidazin)], the LC retention time was 10.8 min.
As for `CCOC(=O)c1ncn2c1CN(C)C(=O)c1cc(F)ccc1-2` [Flumazenil], the LC retention time is 6.04 min.
To `CC1CC2C3CC(F)C4=CC(=O)C=CC4(C)C3(F)C(O)CC2(C)C1(O)C(=O)CO` (stereo not given) [Flumethasone] belongs 8.28 min; to `Cc1ccn2nc(S(=O)(=O)Nc3c(F)cccc3F)nc2n1` [Flumetsulam], 4.83 min; to `C#CCN1C(=O)COc2cc(F)c(N3C(=O)C4=C(CCCC4)C3=O)cc21` [Flumioxazin], 8.73 min.
For `CC1(C)OC2CC3C4CC(F)C5=CC(=O)C=CC5(C)C4C(O)CC3(C)C2(C(=O)CO)O1` (stereo not given) [Flunisolide], the LC retention time is 9.01 min.
For the compound `Nc1ccc2c(c1)C(c1ccccc1F)=NCC(=O)N2` [Flunitrazepam-7-Amino-desmethyl], the LC retention time is 4.62 min.
Turning to `CN1C(=O)CN=C(c2ccccc2F)c2cc(N)ccc21` [Flunitrazepam- 7-Amino], the LC retention time was 5.41 min.
To `O=C1CN=C(c2ccccc2F)c2cc([N+](=O)[O-])ccc2N1` [Flunitrazepam-N-Desmethyl (Norflunitrazepam)] belongs 7.35 min.
To `CN1C(=O)CN=C(c2ccccc2F)c2cc([N+](=O)[O-])ccc21` [Flunitrazepam] belongs 7.83 min; to `Cc1c(Nc2ncccc2C(=O)O)cccc1C(F)(F)F` [Flunixin], 9.09 min; to `CC1(C)OC2CC3C4CC(F)C5=CC(=O)C=CC5(C)C4(F)C(O)CC3(C)C2(C(=O)CO)O1` (stereo not given) [Fluocinolone acetonide], 8.73 min.
As for `CN(C)C(=O)Nc1cccc(C(F)(F)F)c1` [Fluometuron], the LC retention time is 7.85 min.
For the compound `CCOC(=O)COC(=O)c1cc(Oc2ccc(C(F)(F)F)cc2Cl)ccc1[N+](=O)[O-]` [Fluoroglycofen-ethyl], the LC retention time is 11.7 min.
To `CC(=O)C1(O)CCC2C3CC(C)C4=CC(=O)C=CC4(C)C3(F)C(O)CC21C` (stereo not given) [Fluorometholone] belongs 8.91 min.
For `CON=C(C1=NOCCO1)c1ccccc1Oc1ncnc(Oc2ccccc2Cl)c1F` [Fluoxastrobin], the LC retention time is 9.95 min.
To `NCCC(Oc1ccc(C(F)(F)F)cc1)c1ccccc1` (stereo not given) [Fluoxetine-nor] belongs 8.58 min; to `CNCCC(Oc1ccc(C(F)(F)F)cc1)c1ccccc1` (stereo not given) [Fluoxetine], 8.6 min; to `OCCN1CCN(CCC=C2c3ccccc3Sc3ccc(C(F)(F)F)cc32)CC1` [Flupentixol], 10.2 min.
To `OCCN1CCN(CCCN2c3ccccc3Sc3ccc(C(F)(F)F)cc32)CC1` [Fluphenazine] belongs 9.93 min; to `CCOC(=O)Nc1ccc(NCc2ccc(F)cc2)nc1N` [Flupirtine], 7.09 min.
As to `O=c1c2cc(F)ccc2nc(-n2cncn2)n1-c1ccc(Cl)cc1Cl` [Fluquinconazole], the LC retention time is 10.1 min.
Turning to `O=C1CN=C(c2ccccc2F)c2cc(Cl)ccc2N1CCO` [Flurazepam-2-OH-Ethyl], the LC retention time was 8.19 min.
On to `O=C1CN=C(c2ccccc2F)c2cc(Cl)ccc2N1` [Flurazepam-Desalkyl], for which the LC retention time is 8.74 min.
To `CCN(CC)CCN1C(=O)CN=C(c2ccccc2F)c2cc(Cl)ccc21` [Flurazepam] belongs 6.61 min.
With `Cn1cc(-c2ccccc2)c(=O)c(-c2cccc(C(F)(F)F)c2)c1` [Fluridone], the LC retention time was 8.82 min.
Consider `O=C1C(Cl)C(CCl)CN1c1cccc(C(F)(F)F)c1` (stereo not given) [Flurochloridone], for which the LC retention time is 9.84 min.
Consider `Nc1c(Cl)c(F)nc(OCC(=O)O)c1Cl` [Fluroxypyr], for which the LC retention time was 5.43 min.
`CC(C)C(O)(c1ccc(OC(F)(F)F)cc1)c1cncnc1` (stereo not given) [Flurprimidol]: the LC retention time was 9.62 min.
To `CNC1=C(c2cccc(C(F)(F)F)c2)C(=O)C(c2ccccc2)O1` (stereo not given) [Flurtamone] belongs 9.14 min; to `C[Si](Cn1cncn1)(c1ccc(F)cc1)c1ccc(F)cc1` [Flusilazole], 10.5 min; to `O=C1NCN(c2ccccc2)C12CCN(CCCC(c1ccc(F)cc1)c1ccc(F)cc1)CC2` [Fluspirilen], 9.19 min.
For `CC(C)C(=O)Nc1ccc([N+](=O)[O-])c(C(F)(F)F)c1` [Flutamide], the LC retention time is 11.2 min.
For the compound `CCC(=O)OC1(C(=O)SCF)C(C)CC2C3CC(F)C4=CC(=O)C=CC4(C)C3(F)C(O)CC21C` (stereo not given) [Fluticasone propionate], the LC retention time was 10.7 min.
For `CC(C)Oc1cccc(NC(=O)c2ccccc2C(F)(F)F)c1` [Flutolanil], the LC retention time was 9.52 min.
For `OC(Cn1cncn1)(c1ccc(F)cc1)c1ccccc1F` (stereo not given) [Flutriafol], the LC retention time was 8.12 min.
As to `CC(C)C(Nc1ccc(C(F)(F)F)cc1Cl)C(=O)OC(C#N)c1cccc(Oc2ccccc2)c1` (stereo not given) [Fluvalinate (tau-)], the LC retention time is 13.5 min.
Consider `CC(C)n1c(C=CC(O)CC(O)CC(=O)O)c(-c2ccc(F)cc2)c2ccccc21` (stereo not given) [Fluvastatin], for which the LC retention time was 10.9 min.
To `COCCCCC(=NOCCN)c1ccc(C(F)(F)F)cc1` [Fluvoxamine] belongs 8.28 min; to `CS(=O)(=O)NC(=O)c1cc(Oc2ccc(C(F)(F)F)cc2Cl)ccc1[N+](=O)[O-]` [Fomesafen], 9.01 min; to `COc1cc(OC)nc(NC(=O)NS(=O)(=O)c2cc(NC=O)ccc2C(=O)N(C)C)n1` [Foramsulfuron], 7.54 min.
`O=C(Nc1ccccc1)Nc1ccnc(Cl)c1` [Forchlorfenuron]: the LC retention time is 8.53 min.
For `CNC(=O)Oc1cccc(N=CN(C)C)c1` [Formetanate], the LC retention time is 3.14 min.
Turning to `COc1ccc(CC(C)NCC(O)c2ccc(O)c(NC=O)c2)cc1` (stereo not given) [Formoterol], the LC retention time was 4.79 min.
As to `CCC(=O)OC(OP(=O)(CCCCc1ccccc1)CC(=O)N1CC(C2CCCCC2)CC1C(=O)O)C(C)C` (stereo not given) [Fosinopril], the LC retention time is 12.4 min.
For the compound `CCOP(=O)(SC(C)CC)N1CCSC1=O` (stereo not given) [Fosthiazate], the LC retention time was 7.73 min.
On to `c1coc(-c2nc3ccccc3[nH]2)c1` [Fuberidazole], for which the LC retention time is 6.48 min.
Regarding `COC(=O)C(C)N(C(=O)c1ccco1)c1c(C)cccc1C` (stereo not given) [Furalaxyl], the LC retention time was 8.99 min.
On to `CCCCOC(=O)N(C)SN(C)C(=O)Oc1cccc2c1OC(C)(C)C2` [Furathiocarb], for which the LC retention time was 12.1 min.
In the case of `O=C1OCCN1N=Cc1ccc([N+](=O)[O-])o1` [Furazolidone], the LC retention time is 4.19 min.
